Results reported in patent US7070960B2, “Method of increasing product expression through solute stress” (Chiron Corporation, priority 1987, dated 2006).

How the values were obtained:
hybridoma D-234 = assay: Effect of NH4Cl on D-234 growth and IgM production; type: cell-based, human/human/murine trioma; conditions: 10 mM NH4Cl
Experimental: The hybridoma D-234 was grown in HL-1 serum-free medium supplemented with 0.1% Pluronic polyol F-68, 10 mM glutamine and 10 mM NH4Cl. A control was also run without NH4Cl. One hundred ml cultures in 250 ml shake flasks were inoculated at an initial density of 1×10^5 viable cells/ml (91% viability).

D-234 = assay: Effect of Na lactate on D-234 growth and IgM production; type: cell-based, human/human/murine trioma
Experimental: Approximately 1×10^5 cells/ml of D-234 were grown in 250 ml shake flasks (agitated at 100 rpm) in HL-1 medium containing 0.1% Pluronic polyol F-68 and 8 mM glutamine. A 1 M stock solution of sodium lactate (pH 7.4) in HL-1 was added to the medium. A preliminary screen of the effect of a broad range of sodium lactate concentrations (0–100 mM) on D-234 growth and IgM production was run. […] Cell densities at day four were reduced at all levels of lactate tested with a critical drop between 40 and 60 mM.

454A12 hybridomas = assay: Effect of sodium chloride on IgG production by hybridoma 454A12; type: cell-based, murine
Experimental: In another experiment, the 454A12 hybridomas were grown in shake flasks with commercially available HL-1 medium (Ventrex) supplemented with 8 mM glutamine. Osmolality of the standard (control) HL-1 medium was 300 mOsmol/kg. In the test sample, the osmolality was increased to 400 mOsmol/kg using sodium chloride. The result of solute stress in the test sample was evidenced by a 50% decrease in maximum cell density. In the stressed condition, the specific IgG production rate per cell increased throughout the culture period The increase in specific productivity was greatest during the post exponential phase period of the culture when specific productivity was more than 60% higher under the stressed condition (FIG. 3).

Cl.N [NH4Cl, ammonium chloride]
increase in the production of IgM (hybridoma D-234): 2 fold
maximum total cell density (hybridoma D-234; control 2.3×10^6/ml): 1.1e+06 mL⁻¹

CC(O)C(=O)[O-].[Na+] (stereo not shown) [Na Lactate, sodium lactate]
Total Cell Density (D-234; 20 mM initial lactate, Day 2, 0 mM 4.7): 5.6 1 × 10^5/ml
% Viability (D-234; 20 mM initial lactate, Day 2, 0 mM 95): 96%
IgM (D-234; 20 mM initial lactate, Day 4, 0 mM 10): 20 µg/mL
Total Cell Density (D-234; 20 mM initial lactate, Day 4, 0 mM 21.0): 15.0 1 × 10^5/ml
% Viability (D-234; 20 mM initial lactate, Day 4, 0 mM 90): 92%
IgM (D-234; 20 mM initial lactate, Day 7, 0 mM 24): 35 µg/mL
% Viability (D-234; 40 mM initial lactate, Day 2): 92%
Total Cell Density (D-234; 40 mM initial lactate, Day 2): 5.1 1 × 10^5/ml
% Viability (D-234; 40 mM initial lactate, Day 4): 89%
IgM (D-234; 40 mM initial lactate, Day 4): 22 µg/mL
Total Cell Density (D-234; 40 mM initial lactate, Day 4): 12.9 1 × 10^5/ml
IgM (D-234; 40 mM initial lactate, Day 7): 54 µg/mL
% Viability (D-234; 60 mM initial lactate, Day 2): 93%
Total Cell Density (D-234; 60 mM initial lactate, Day 2): 2.2 1 × 10^5/ml
% Viability (D-234; 60 mM initial lactate, Day 4): 87%
IgM (D-234; 60 mM initial lactate, Day 4): 19 µg/mL
Total Cell Density (D-234; 60 mM initial lactate, Day 4): 4.1 1 × 10^5/ml
IgM (D-234; 60 mM initial lactate, Day 7, control 24): 61 µg/mL
cell density as % of the control (D-234; 80 mM added lactate): 12%
% Viability (D-234; 80 mM initial lactate, Day 2): 81%
Total Cell Density (D-234; 80 mM initial lactate, Day 2): 2.1 1 × 10^5/ml
% Viability (D-234; 80 mM initial lactate, Day 4): 65%
IgM (D-234; 80 mM initial lactate, Day 4): 15 µg/mL
Total Cell Density (D-234; 80 mM initial lactate, Day 4): 2.6 1 × 10^5/ml
IgM (D-234; 80 mM initial lactate, Day 7): 28 µg/mL
% Viability (D-234; 100 mM initial lactate, Day 2): 72%
Total Cell Density (D-234; 100 mM initial lactate, Day 2): 2.2 1 × 10^5/ml
% Viability (D-234; 100 mM initial lactate, Day 4): 50%
IgM (D-234; 100 mM initial lactate, Day 4): 11 µg/mL
Total Cell Density (D-234; 100 mM initial lactate, Day 4): 2.0 1 × 10^5/ml
IgM (D-234; 100 mM initial lactate, Day 7): 14 µg/mL
increase in specific (per cell) productivity (D-234; at 60 mM added lactate): up to 14 fold
effect on growth (D-234; levels of added lactate above 40 mM, screen 0–100 mM): greatly inhibited

[Cl-].[Na+] [sodium chloride]
decrease in maximum cell density (454A12 hybridomas; 400 mOsmol/kg using sodium chloride versus 300 mOsmol/kg control): 50%
increase in specific IgG productivity (454A12 hybridomas; 400 mOsmol/kg using sodium chloride, post exponential phase period): more than 60%
